Values quoted from earlier work in patent US6949582B1, “Method of relieving analgesia and reducing inflamation using a cannabinoid delivery topical liniment” (priority 1999, dated 2005).

Columns and labels:
[1] = system: interleukin, TNF, cytokine-induced genes; conditions: carrageenan-induced edema, up-regulation of cytokine-induced genes
[2] = system: peripheral CB1-like and CB2-like receptors; conditions: in vivo
[3] = system: human rheumatoid synovial cells
cytokines such as TNFα = conditions: in vivo
[4] = rat hind-paw edema from carrageenan or PGE-1
[5] = mice, given orally
[6] = live rats, carriers PEG, Transcutol, PG:EtOH 7:3
[7] = system: prostaglandin biosynthesis
CB2 = conditions: by down-modulating mast cell formation after injury
[8] = in vivo
[9] = system: calcitonin gene-related peptide release; conditions: isolated hindpaw skin
peripheral CB1 receptor = target: T1, peripheral CB1 receptor (Rattus norvegicus, UniProt P20272)
T1 construct: host or cells: rat, peripheral tissue (hindpaw) in vivo
T1 sequence (P20272 whole entry): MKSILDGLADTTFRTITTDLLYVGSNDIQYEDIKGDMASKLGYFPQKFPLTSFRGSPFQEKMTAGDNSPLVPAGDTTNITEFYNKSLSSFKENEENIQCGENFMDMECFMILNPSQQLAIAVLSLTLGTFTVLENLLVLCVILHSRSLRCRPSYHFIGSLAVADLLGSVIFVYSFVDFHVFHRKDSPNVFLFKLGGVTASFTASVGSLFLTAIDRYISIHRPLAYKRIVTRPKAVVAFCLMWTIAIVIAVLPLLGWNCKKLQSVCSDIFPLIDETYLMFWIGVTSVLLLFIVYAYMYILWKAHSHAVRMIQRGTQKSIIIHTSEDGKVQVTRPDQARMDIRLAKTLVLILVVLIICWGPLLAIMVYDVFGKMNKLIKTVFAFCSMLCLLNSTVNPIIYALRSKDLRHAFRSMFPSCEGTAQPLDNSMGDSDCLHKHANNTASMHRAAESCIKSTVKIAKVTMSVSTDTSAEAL

[10] = peripheral, but not systemic, administration of 0.01 ng

What does the source list for `CCCCCc1cc(O)c2c(c1)OC(C)(C)[C@@H]1CCC(C)=C[C@@H]21` [delta-9-tetrahydrocannabinol]?
analgesic effects compared with codeine (double blind controlled cross over study): analgesic effects equivalent to codeine; analgesia (patients with cancer pain, second study): significant analgesia

For `O=c1cc(-c2ccc(O)cc2)oc2cc(O)cc(O)c12` [Apigenin], which anti-inflammatory actions [1] is on record?
The anti-inflammatory actions was “important anti-inflammatory actions”.

Which “pain behavior produced by chemical damage to cutaneous tissue” value (“pain behavior produced” for short) [2] does the source give for `Cc1c(C(=O)NN2CCCCC2)nn(-c2ccc(Cl)cc2Cl)c1-c1ccc(Cl)cc1` [SR141716A] here?
Its value is “prolong and enhance the pain behavior”.

With `COc1cc(-c2cc(=O)c3c(O)c(C/C=C(\C)CCC=C(C)C)c(O)cc3o2)ccc1O` [Cannflavin A] as the molecule, how does the “potency of inhibition of prostaglandin E-2 production relative to aspirin” value [3] read?
The value was 30 times.

Which “inflammation caused by mobilization of cytokines such as TNFα” value (cytokines such as TNFα) does the source give for `CCCCCCC(C)(C)c1cc(O)c2c(c1)OC(C)(C)[C@H]1CC=C(CO)C[C@H]21` [HU-211] here?
The value was “supress inflammation”.

With SR144528 as the molecule, how does the “pain behavior produced” value [2] read?
Its value is “prolong and enhance the pain behavior”.

For caryophyllene, which anti-inflammatory activity [4] is on record?
Its anti-inflammatory activity is “demonstrate anti-inflammatory activity”.

Which “acute and chronic inflammatory changes” value [5] does the source give for `CCCCCCC(C)(C)c1cc(O)c2c(c1)OC(C)(C)[C@@H]1CC=C(C(=O)O)C[C@@H]21` here?
The value was “supresses acute and chronic inflammatory changes”.

For `CCCCCc1cc(O)c2c(c1)OC(C)(C)[C@@H]1CC=C(C)C[C@@H]21` [Delta-8 THC], which “skin penetration by carrier” value ([6]; after 2 hrs) is on record?
The value was “highest skin penetration of THC was observed from the Transcutol”.

What about the “concentration in skin layers by carrier” value ([6]; after 24 hours) of the same molecule?
The value was “the Transcutol system delivered the highest THC concentration to the various layers of the skin”.

Which “potency of inhibition of prostaglandin E-2 production relative to aspirin” value [3] does the source give for `COc1cc(-c2cc(=O)c3c(O)c(CC=C(C)C)c(O)cc3o2)ccc1O` [Cannflavin B] here?
The value was 30 times.

For `C=CCc1ccc(O)c(OC)c1` [eugenol], which prostaglandin inhibition [7] is on record?
The prostaglandin inhibition was “potent”.

For `CC1=CCC2CC1C2(C)C` (stereo not drawn) [Alpha-pinene], which anti-inflammatory activity [4] is on record?
The anti-inflammatory activity was “demonstrate anti-inflammatory activity”.

With `CCCCCCCCCCCCCCCC(=O)NCCO` [Palmitoylethanolamide, palmitylethanolamide] as the molecule, how does the “mast-cell activation and inflammatory responses” value (mast-cell activation) read?
The value was “inhibits mast-cell activation and reduces inflammatory responses”.

What about the “carageenan-induced mechanical hyperalgesia and edema” value (CB2) of the same molecule?
Its value is “attenuates”.

What about the “pain behavior produced” value [2] of the same molecule?
The value was “exerts a similar effect”.

Which results are given for `C=C(C)[C@@H]1CCC(C)=C[C@H]1c1c(O)cc(CCCCC)cc1O` [cannabidiol]?
neuroprotective properties compared with other antioxidants (cell culture model): matched or surpassed other antioxidants; reduction of inflammation compared with aspirin [8]: more effective than aspirin

For `CCCCC/C=C\C/C=C\C/C=C\C/C=C\CCCC(=O)NCCO` [anandamide, arachidonyl-ethanolamide], which “capsaicin-evoked release of calcitonin gene-related peptide” value [9] is on record?
Its value is “inhibited”.

What about the “hyperalgesia after its development” value (peripheral CB1 receptor; peripheral administration, reversed by CB1 antagonist SR 141716A) of the same molecule?
Its value is “attenuated hyperalgesia”.

What about the edema (peripheral CB1 receptor; [10]) of the same molecule?
Its edema is “inhibited edema”.

What about the induction of hyperalgesia (peripheral CB1 receptor; [10]) of the same molecule?
Its induction of hyperalgesia is “inhibited the induction of hyperalgesia”.

And the “pain behavior produced” value [2]?
Its value is “attenuates the pain behavior”.
